In ChEMBL document CHEMBL3396980, “Total synthesis of Herbarin A and B, determination of their antioxidant properties and toxicity in zebrafish embryo model” (Bioorg Med Chem Lett, 2015):

Tests used:
Danio rerio [1] = species: Danio rerio; assay: Toxicity in wild type zebrafish embryo in E3 medium treated for 2 days observed on 24 hrs of post fertilization by microscopy; assay type: organism-based; details: in vivo, 48 h
[2] = Antioxidant activity assessed as ferric ion reducing activity using fe3+-TPTZ assessed as fe2+-TPTZ formation at 0.1 to 1 mM by spectrophotometry based FRAP assay; assay type: physicochemical; details: 1000 µM
Danio rerio [3] = species: Danio rerio; assay: Toxicity in wild type zebrafish embryo in E3 medium assessed as teratogenicity treated at 9 to 190 nM for 2 days observed on 24 hrs of post fertilization by microscopy; assay type: organism-based; details: in vivo, 48 h, 0.19 µM

Activity [2]	SMILES	Activity (Danio rerio [1])	Activity (Danio rerio [3])
Active	COc1cc(=O)oc(/C=C/C=C/C(=O)O)c1C	Non-toxic	
Active	COc1cc(=O)oc(/C=C/C(=O)O)c1C		100%
